This note sets out measurements from patent US4051129A, “Process for preparing 7-methoxycephalosporin compounds” (Sankyo Company Limited, priority 1974, dated 1977).

Holding throughout (format): cell-based
Assay [1] deals with Shigella flexneri Komagome. Kind of assay: Minimum Inhibitory Concentration, Shigella flexneri Komagome. The settings on record: III: Shigella flexneri Komagome.
In assay [2] the test system is Salmonella enteritidis Gartner. Kind of assay: Minimum Inhibitory Concentration, Salmonella enteritidis Gartner. The settings on record: Salmonella enterica; VI: Salmonella enteritidis Gartner.
Assay [3] relates to Proteus vulgaris. Kind of assay: Minimum Inhibitory Concentration, Proteus vulgaris. Particulars: V: Proteus vulgaris.
Assay [4] has as its system Klebsiella neumoniae 846 (resistant to CER). Kind of assay: Minimum Inhibitory Concentration, Klebsiella neumoniae 846 (resistant to CER). Particulars: read-out: Minimum Inhibitory Concentration.
Assay [5] relates to Staphylococcus aureus 209 P. Description: Minimum Inhibitory Concentration, Staphylococcus aureus 209 P. The settings on record: IA: Staphylococcus aureus 209 P.
Assay [6] concerns Klebsiella neumoniae 806. Kind of assay: Minimum Inhibitory Concentration, Klebsiella neumoniae 806. The settings on record: Klebsiella, 806, read-out: Minimum Inhibitory Concentration.
The test system of assay [7] is Staphylococcus aureus (resistant to CP and PC). Description: Minimum Inhibitory Concentration, Staphylococcus aureus (resistant to CP and PC). Particulars: IB: Staphylococcus aureus (resistant to CP and PC).
Assay [8] deals with Escherichia coli 609 (resistant to CER). Description: Minimum Inhibitory Concentration, Escherichia coli 609 (resistant to CER). Particulars: read-out: Minimum Inhibitory Concentration.
The subject of assay [9] is Escherichia coli NIHJ. Kind of assay: Minimum Inhibitory Concentration, Escherichia coli NIHJ. The settings on record: IIA: Escherichia coli NIHJ.
The mark [10] stands for this setting: IIB: Escherichia coli 609 (resistant to CER).

Values after ≈ are worked out from the molar mass of the structure shown. Like-named read-outs stand apart in the source and are kept apart here.

Take `CCS(=O)(=O)CC(=O)N[C@]1(OC)C(=O)N2C(C(=O)O)=C(CSc3nnnn3C)CS[C@@H]21` [C2 H5 SO2 / drawing 6, 7β-ethylsulfonylacetamido-7α-methoxy-3-(1-methyl-1H-tetrazol-5-yl)thiomethyl-3-cephem-4-carboxylic acid]: the MIC in [1] is 1.5 µg/mL (≈ 3.05 µM); in assay [2], 0.8 µg/mL (≈ 1.62 µM).
On to `CO[C@@]1(NC(=O)CS(C)(=O)=O)C(=O)N2C(C(=O)O)=C(CSc3nnnn3C)CS[C@@H]21` [CH3 SO2 / drawing 6, 7β-methylsulfonylacetamido-7α-methoxy-3-(1-methyl-1H-tetrazol-5-yl)thiomethyl-3-cephem-4-carboxylic acid], for which the MIC in assay [1] was determined as 1.5 µg/mL (≈ 3.13 µM).
In the case of `CO[C@@]1(NC(=O)CSCCO)C(=O)N2C(C(=O)O)=C(CSc3nnnn3C)CS[C@@H]21` [HOCH2 CH2 S / drawing 6, 7β-(2-hydroxyethylthio)acetamido-7α-methoxy-3-(1-methyl-1H-tetrazol-5-yl)thiomethyl-3-cephem-4-carboxylic acid], the MIC in assay [1] came to 1.5 µg/mL (≈ 3.15 µM); in assay [2] it was 0.8 µg/mL (≈ 1.68 µM); in assay [3], 3.1 µg/mL (≈ 6.5 µM); in [4], 200 µg/mL (≈ 420 µM); in assay [5], 0.8 µg/mL (≈ 1.68 µM).
As to `CO[C@@]1(NC(=O)CSCN=[N+]=[N-])C(=O)N2C(C(=O)O)=C(COC(C)=O)CS[C@@H]21` [N3 CH2 S / OCOCH3, 3-acetoxymethyl-7β-azidomethylthioacetamido-7α-methoxy-3-cephem-4-carboxylic acid], the MIC in [1] was 6.2 µg/mL (≈ 14.4 µM); in [6] it was 6.2 µg/mL (≈ 14.4 µM); in assay [4], more than 200 µg/mL.
Consider `CO[C@@]1(NC(=O)CSCN=[N+]=[N-])C(=O)N2C(C(=O)O)=C(COC(N)=O)CS[C@@H]21` [N3 CH2 S / OCONH2, 7β-azidomethylthioacetamido-3-carbamoyloxymethyl-7α-methoxy-3-cephem-4-carboxylic acid], for which the results for the MIC in [1], in assay [4] and in [5] were 3.1 µg/mL (≈ 7.17 µM), more than 400 µg/mL and 0.2 µg/mL (≈ 0.462 µM), respectively.
For the compound `CO[C@@]1(NC(=O)CSCN=[N+]=[N-])C(=O)N2C(C(=O)O)=C(CSc3nnnn3C)CS[C@@H]21` [N3 CH2 S / drawing 10, 7β-azidomethylthioacetamido-7α-methoxy-3-(1-methyl-1H-tetrazol-5-yl)thiomethyl-3-cephem-4-carboxylic acid], the MIC in assay [1] was 1.5 µg/mL (≈ 3.08 µM); in assay [7], 0.4 µg/mL (≈ 0.82 µM); in [2] it was 0.8 µg/mL (≈ 1.64 µM); in assay [4] it was more than 200 µg/mL; in assay [5] it was 0.4 µg/mL (≈ 0.82 µM).
Turning to `CO[C@@]1(NC(=O)CS(=O)(=O)CCC#N)C(=O)N2C(C(=O)O)=C(CSc3nnnn3C)CS[C@@H]21` [NC(CH2)2 SO2 / drawing 6, 7β-cyanoethylsulfonyl-acetamido-7α-methoxy-3-(1-methyl-1H-tetrazol-5-yl)thiomethyl-3-cephem-4-carboxylic acid], the MIC is 3.1 µg/mL (≈ 5.99 µM) in assay [1], 0.8 µg/mL (≈ 1.55 µM) in [2] and 200 µg/mL (≈ 386 µM) in [4].
Turning to `CO[C@@]1(NC(=O)CSCC#N)C(=O)N2C(C(=O)O)=C(COC(C)=O)CS[C@@H]21` [NCCH2 S / OCOCH3, 3-acetoxymethyl-7β-cyanomethylthioacetamido-7α-methoxy-3-cephem-4-carboxylic acid], the MIC in assay [1] amounted to 3.1 µg/mL (≈ 7.46 µM).
With `CO[C@@]1(NC(=O)CSCC#N)C(=O)N2C(C(=O)O)=C(COC(N)=O)CS[C@@H]21` [NCCH2 S / OCONH2, 3-carbamoyloxymethyl-7β-cyanomethylthioacetamido-7α-methoxy-3-cephem-4-carboxylic acid], the MIC in assay [1] stood at 3.1 µg/mL (≈ 7.44 µM); in [6], 3.1 µg/mL (≈ 7.44 µM); in assay [7], 3.1 µg/mL (≈ 7.44 µM); in assay [8] (setting [10]) it was 1.5 µg/mL (≈ 3.6 µM); in assay [2], 1.5 µg/mL (≈ 3.6 µM).
Take `CO[C@@]1(NC(=O)CSCC#N)C(=O)N2C(C(=O)O)=C(CSc3nnnn3C)CS[C@@H]21` [NCCH2 S / drawing 6, 7β-cyanomethylthioacetamido-7α-methoxy-3-(1-methyl-1H-tetrazol-5-yl)thiomethyl-3-cephem-4-carboxylic acid]: the MIC in [1] stood at 0.8 µg/mL (≈ 1.7 µM); in assay [6], 0.8 µg/mL (≈ 1.7 µM); in assay [2], 0.2 µg/mL (≈ 0.424 µM); in assay [3], 1.5 µg/mL (≈ 3.18 µM); in assay [5], 0.2 µg/mL (≈ 0.424 µM).
Regarding `CO[C@@]1(NC(=O)C[n+]2cc([O-])on2)C(=O)N2C(C(=O)O)=C(CSc3nnnn3C)CS[C@@H]21` [drawing 7 / drawing 6, 7β-(sydnon-3)acetamido-7α-methoxy-3-(1-methyl-1H-tetrazol-5-yl)thiomethyl-3-cephem-4-carboxylic acid], the MIC was 1.5 µg/mL (≈ 3.1 µM) in [1], 0.8 µg/mL (≈ 1.65 µM) in [2], more than 200 µg/mL in assay [4] and 0.8 µg/mL (≈ 1.65 µM) in assay [5].
`CO[C@@]1(NC(=O)CSC(C)C#N)C(=O)N2C(C(=O)O)=C(CSc3nnnn3C)CS[C@@H]21` (stereo partly drawn) [drawing 8 / drawing 6, 7β-(1-cyanoethyl)-acetamido-7α-methoxy-3-(1-methyl-1H-tetrazol-5-yl)thiomethyl-3-cephem-4-carboxylic acid]: the MIC in [1] turned out to be 1.5 µg/mL (≈ 3.09 µM); in assay [6], 1.5 µg/mL (≈ 3.09 µM); in [7] it was 0.8 µg/mL (≈ 1.65 µM); in assay [8] (setting [10]), 3.1 µg/mL (≈ 6.38 µM); in assay [2], 0.4 µg/mL (≈ 0.824 µM); in [9], 1.5 µg/mL (≈ 3.09 µM). Moreover, the MIC in [3] was determined as 0.8 µg/mL (≈ 1.65 µM); in assay [4] it was 400 µg/mL (≈ 824 µM); in [5] it was 0.4 µg/mL (≈ 0.824 µM).
In assay [1], `C#CCSCC(=O)N[C@]1(OC)C(=O)N2C(C(=O)O)=C(CSc3nnnn3C)CS[C@@H]21` [drawing 9 / drawing 10, 7β-propargylthioacetamido-7α-methoxy-3-(1-methyl-1H-tetrazol-5-yl)thiomethyl-3-cephem-4-carboxylic acid] returned an MIC of 3.1 µg/mL (≈ 6.59 µM).
The same measure, in the same setting: to `CO[C@@]1(NC(=O)COc2ccon2)C(=O)N2C(C(=O)O)=C(CSc3nnnn3C)CS[C@@H]21` [drawing 11 / drawing 10, 7β-(3-isoxazolyloxy)acetamido-7α-methoxy-3-(1-methyl-1H-tetrazol-5-yl)thiomethyl-3-cephem-4-carboxylic acid] belongs 3.1 µg/mL (≈ 6.41 µM).
Take `CO[C@@]1(NC(=O)CSc2ccon2)C(=O)N2C(C(=O)O)=C(CSc3nnnn3C)CS[C@@H]21` [drawing 12 / drawing 10, 7β-(3-isoxazolylthio)acetamido-7α-methoxy-3-(1-methyl-1H-tetrazol-5-yl)thiomethyl-3-cephem-4-carboxylic acid]: the MIC in [1] is 3.1 µg/mL (≈ 6.21 µM); in assay [7], 0.8 µg/mL (≈ 1.6 µM); in assay [2] it was 0.8 µg/mL (≈ 1.6 µM); in assay [4], more than 400 µg/mL; in [5], 0.2 µg/mL (≈ 0.4 µM).
Regarding `CO[C@@]1(NC(=O)CSc2ccon2)C(=O)N2C(C(=O)O)=C(COC(C)=O)CS[C@@H]21` [drawing 13 / OCOCH3, 3-acetoxymethyl-7β-(3-isoxazolylthio)acetamido-7α-methoxy-3-cephem-4-carboxylic acid], in assay [1], the MIC was determined as 6.2 µg/mL (≈ 14 µM).
Take `C#CCSCC(=O)N[C@]1(OC)C(=O)N2C(C(=O)O)=C(COC(C)=O)CS[C@@H]21` [drawing 14 / OCOCH3]: the MIC worked out at 12.5 µg/mL (≈ 30.2 µM) in assay [1]; 12.5 µg/mL (≈ 30.2 µM) in assay [6]; 6.2 µg/mL (≈ 15 µM) in assay [7]; 12.5 µg/mL (≈ 30.2 µM) in assay [8] (Escherichia coli); 6.2 µg/mL (≈ 15 µM) in [2]; 12.5 µg/mL (≈ 30.2 µM) in assay [3]. In addition, the MIC was more than 200 µg/mL in [4] and 1.5 µg/mL (≈ 3.62 µM) in assay [5].
